Assays:
[1] = molecular target: human cathepsin K (UniProt P43236, Y175D/V274L, species not given); test: Cathepsin K Assay; assay type: biochemical; details: IP from dose response curve; Z-Leu-Arg-AMC substrate, pH 5.5; read-out: hrbCat K (IP (nM))
[2] = molecular target: T1, human cathepsin F (Homo sapiens, UniProt Q9UBX1); test: Cathepsin F Assay; assay type: biochemical; details: IP from dose response curve; Z-Phe-Arg-AMC substrate, pH 5.5; read-out: hCat F (IP (nM))
T1 sequence (Q9UBX1 271-484): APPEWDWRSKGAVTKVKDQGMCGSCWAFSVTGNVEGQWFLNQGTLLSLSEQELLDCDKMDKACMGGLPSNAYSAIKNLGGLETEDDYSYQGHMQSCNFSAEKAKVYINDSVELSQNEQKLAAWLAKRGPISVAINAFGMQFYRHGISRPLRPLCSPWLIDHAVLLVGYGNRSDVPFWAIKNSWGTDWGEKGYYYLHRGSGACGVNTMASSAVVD
Method in brief: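 Human cathepsin F (10 nM) preincubated 15 min at room temperature with compounds in 50 mM MES pH 5.5, 2.5 mM EDTA, 2.5 mM DTT, 10% DMSO. Z-Phe-Arg-AMC (8 μM) added; AMC release read by fluorescence (Ex 360/Em 460 nm) over 20 min, inhibition fit to dose-response model.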

Structure (SMILES) | IC50 [1] | IC50 [2]
Cc1c(-c2ccc(N3CCS(=N)(=O)CC3)cc2)c([C@@H]2CCCC[C@H]2C(=O)N[C@H](C#N)C(C)C)nn1-c1ncccc1F [Example 52, (1R,2R)-N-((S)-1-cyano-2-methylpropyl)-2-(1-(3-fluoropyridin-2-yl)-4-(4-(1-imino-1-oxidothiomorpholino)phenyl)-5-methyl-1H-pyrazol-3-yl)cyclohexanecarboxamide] | 22.5 nM | 9320 nM
C[C@@H](C#N)NC(=O)[C@@H]1C[C@@H](F)CC[C@H]1c1nn(-c2ncccc2F)cc1-c1ccc(N2CCS(=N)(=O)CC2)cc1 [Example 57, (1R,2R,5S)-N-((S)-1-cyanoethyl)-5-fluoro-2-(1-(3-fluoropyridin-2-yl)-4-(4-(1-imino-1-oxidothiomorpholino)phenyl)-1H-pyrazol-3-yl)cyclohexanecarboxamide] | 8.3 nM | 7770 nM
N#CC1(NC(=O)[C@@H]2C[C@@H](F)CC[C@H]2c2nn(-c3ccc(F)cn3)cc2-c2ccc(N3CCS(=N)(=O)CC3)cc2)CC1 [Example 59, (1R,2R,5S)-N-(1-cyanocyclopropyl)-5-fluoro-2-(1-(5-fluoropyridin-2-yl)-4-(4-(1-imino-1-oxidothiomorpholino)phenyl)-1H-pyrazol-3-yl)cyclohexanecarboxamide] | 1.29 nM | 2460 nM
C[C@@H](C#N)NC(=O)[C@@H]1C[C@@H](F)CC[C@H]1c1nn(-c2ccc(F)cn2)cc1-c1ccc(N2CCS(=N)(=O)CC2)cc1 [Example 60, (1R,2R,5S)-N-((S)-1-cyanoethyl)-5-fluoro-2-(1-(5-fluoropyridin-2-yl)-4-(4-(1-imino-1-oxidothiomorpholino)phenyl)-1H-pyrazol-3-yl)cyclohexanecarboxamide] | 1.43 nM | 674 nM
C[C@@H](C#N)NC(=O)[C@@H]1CC(F)(F)CC[C@H]1c1nn(-c2ccc(F)cc2)c(CO)c1-c1ccc(N2CCS(=O)(=O)CC2)cc1 [Example 61, (1R,2R)-N-((S)-1-cyanoethyl)-2-(4-(4-(1,1-dioxidothiomorpholino)phen-yl)-1-(4-fluorophenyl)-5-(hydroxymethyl)-1H-pyrazol-3-yl)-5,5-difluorocyclohexanecarbox-amide] | 1.61 nM | 121 nM
N#CC1(NC(=O)[C@@H]2CC(F)(F)CC[C@H]2c2nn(-c3ccc(F)cn3)c(CF)c2-c2ccc(N3CCS(=O)(=O)CC3)cc2)CC1 [Example 62, (1R,2R)-N-(1-cyanocyclopropyl)-2-(4-(4-(1,1-dioxidothiomorpholino)phen-yl)-5-(fluoromethyl)-1-(5-fluoropyridin-2-yl)-1H-pyrazol-3-yl)-5,5-difluorocyclohexanecarbox-amide] | 1.33 nM | 151 nM
CC(C)[C@@H](C#N)NC(=O)[C@@H]1CC(F)(F)CC[C@H]1c1nn(-c2ccc(F)cc2)c(CO)c1-c1ccc(N2CCS(=O)(=O)CC2)cc1 [Example 63, (1R,2R)-N-((S)-1-cyano-2-methylpropyl)-2-(4-(4-(1,1-dioxidothiomorpholino)phen-yl)-1-(4-fluorophenyl)-5-(hydroxymethyl)-1H-pyrazol-3-yl)-5,5-difluorocyclohexanecarbox-amide] | 1.98 nM | 98 nM
C[C@@H](C#N)NC(=O)[C@@H]1CCCC[C@H]1c1nn(-c2ccc(F)cc2)c(CO)c1-c1ccc(N2CCS(=O)(=O)CC2)cc1 [Example 64, (1R,2R)-N-((S)-1-cyanoethyl)-2-(4-(4-(1,1-dioxidothiomorpholino)phen-yl)-1-(4-fluorophenyl)-5-(hydroxymethyl)-1H-pyrazol-3-yl)cyclohexanecarboxamide] | 4.61 nM | 565 nM
CC(C)[C@@H](C#N)NC(=O)[C@@H]1CCCC[C@H]1c1nn(-c2ccc(F)cc2)c(CO)c1-c1ccc(N2CCS(=O)(=O)CC2)cc1 [Example 65, (1R,2R)-N-((S)-1-cyano-2-methylpropyl)-2-(4-(4-(1,1-dioxidothiomorpholino)phen-yl)-1-(4-fluorophenyl)-5-(hydroxymethyl)-1H-pyrazol-3-yl)cyclohexanecarboxamide] | 11 nM | 868 nM
Cc1c(-c2ccc(N3CCS(=O)(=O)CC3)cc2)c([C@@H]2CCCC[C@H]2C(=O)N[C@@H](C)C#N)nn1-c1ccc(F)cn1 [Example 66, (1R,2R)-N-((S)-1-cyanoethyl)-2-(4-(4-(1,1-dioxidothiomorpholino)phen-yl)-1-(5-fluoropyridin-2-yl)-5-methyl-1H-pyrazol-3-yl)cyclohexanecarboxamide] | 3.6 nM | 653 nM
C[C@@H](C#N)NC(=O)[C@@H]1CC(F)(F)CC[C@H]1c1nn(-c2ccc(F)cn2)c(CO)c1-c1ccc(N2CCS(=O)(=O)CC2)cc1 [Example 67, (1R,2R)-N-((S)-1-cyanoethyl)-2-(4-(4-(1,1-dioxidothiomorpholino)phen-yl)-1-(5-fluoropyridin-2-yl)-5-(hydroxymethyl)-1H-pyrazol-3-yl)-5,5-difluorocyclohexanecarbox-amide] | 1.24 nM | 146 nM
N#CC1(NC(=O)[C@@H]2CC(F)(F)CC[C@H]2c2nn(-c3ccc(F)cn3)c(CO)c2-c2ccc(N3CCS(=O)(=O)CC3)cc2)CC1 [Example 68, (1R,2R)-N-(1-cyanocyclopropyl)-2-(4-(4-(1,1-dioxidothiomorpholino)phen-yl)-1-(5-fluoropyridin-2-yl)-5-(hydroxymethyl)-1H-pyrazol-3-yl)-5,5-difluorocyclohexanecarbox-amide] | 1.41 nM | 125 nM
CC(C)[C@@H](C#N)NC(=O)[C@@H]1CC(F)(F)CC[C@H]1c1nn(-c2ccc(F)cn2)c(CO)c1-c1ccc(N2CCS(=O)(=O)CC2)cc1 [Example 69, (1R,2R)-N-((S)-1-cyano-2-methylpropyl)-2-(4-(4-(1,1-dioxidothiomorpholino)phen-yl)-1-(5-fluoropyridin-2-yl)-5-(hydroxymethyl)-1H-pyrazol-3-yl)-5,5-difluorocyclohexanecarbox-amide] | 2.68 nM | 225 nM
N#CC1(NC(=O)[C@@H]2CC(F)(F)CC[C@H]2c2nn(-c3ccc(F)cn3)c(CO)c2-c2ccc(N3CCS(=O)(=O)CC3)cc2)CC1 [Example 70, (1R,2R)-N-(1-cyanocyclopropyl)-2-(4-(4-(1,1-dioxidothiomorpholino)phen-yl)-1-(5-fluoropyridin-2-yl)-5-(hydroxymethyl)-1H-pyrazol-3-yl)-5,5-difluorocyclohexanecarbox-amide] | 1.9 nM | 185 nM
N#CC1(NC(=O)[C@@H]2CC(F)(F)CC[C@H]2c2nn(-c3ccc(F)cn3)c(C(F)F)c2-c2ccc(N3CCS(=O)(=O)CC3)cc2)CC1 [Example 71, (1R,2R)-N-(1-cyanocyclopropyl)-2-(5-(difluoromethyl)-4-(4-(1,1-dioxidothiomorpholino)phen-yl)-1-(5-fluoropyridin-2-yl)-1H-pyrazol-3-yl)-5,5-difluorocyclohexanecarbox-amide] | 2.35 nM | 149 nM
C[C@@H](C#N)NC(=O)[C@@H]1CC(F)(F)CC[C@H]1c1nn2ccccc2c1-c1ccc(N2CCS(=O)(=O)CC2)cc1 [Example 72, (1R,2R)-N-((S)-1-cyanoethyl)-2-(3-(4-(1,1-dioxidothiomorpholino)phen-yl)pyrazolo[1,5-a]pyridin-2-yl)-5,5-difluorocyclohexanecarbox-amide] | 2.66 nM | 230 nM
CC(C)[C@@H](C#N)NC(=O)[C@@H]1CC(F)(F)CC[C@H]1c1nn2ccccc2c1-c1ccc(N2CCS(=O)(=O)CC2)cc1 [Example 73, (1R,2R)-N-((S)-1-cyano-2-methylpropyl)-2-(3-(4-(1,1-dioxidothiomorpholino)phen-yl)pyrazolo[1,5-a]pyridin-2-yl)-5,5-difluorocyclohexanecarbox-amide] | 5.19 nM | 269 nM
N#CCNC(=O)[C@@H]1CC(F)(F)CC[C@H]1c1nn(-c2ccc(F)cc2)cc1-c1ccc(N2CCS(=O)(=O)CC2)cc1 [Example 81, (1R,2R)-N-(cyanomethyl)-2-(4-(4-(1,1-dioxidothiomorpholino)phen-yl)-1-(4-fluorophenyl)-1H-pyrazol-3-yl)-5,5-difluorocyclohexanecarbox-amide] | 0.37 nM | 11 nM
N#CCNC(=O)[C@H]1CC(F)(F)CC[C@@H]1c1nn(-c2ccc(F)cc2)cc1-c1ccc(N2CCS(=O)(=O)CC2)cc1 [Example 82, (1S,2S)-N-(cyanomethyl)-2-(4-(4-(1,1-dioxidothiomorpholino)phen-yl)-1-(4-fluorophenyl)-1H-pyrazol-3-yl)-5,5-difluorocyclohexanecarbox-amide] | 144 nM | 1400 nM
N#CC1(NC(=O)[C@@H]2CC(F)(F)CC[C@H]2c2nn(-c3ccc(F)cc3)cc2-c2ccc(N3CCS(=O)(=O)CC3)cc2)CC1 [Example 83, (1R,2R)-N-(1-cyanocyclopropyl)-2-(4-(4-(1,1-dioxidothiomorpholino)phen-yl)-1-(4-fluorophenyl)-1H-pyrazol-3-yl)-5,5-difluorocyclohexanecarbox-amide] | 0.47 nM | 28 nM
N#CC1(NC(=O)[C@H]2CC(F)(F)CC[C@@H]2c2nn(-c3ccc(F)cc3)cc2-c2ccc(N3CCS(=O)(=O)CC3)cc2)CC1 [Example 84, (1S,2S)-N-(1-cyanocyclopropyl)-2-(4-(4-(1,1-dioxidothiomorpholino)phen-yl)-1-(4-fluorophenyl)-1H-pyrazol-3-yl)-5,5-difluorocyclohexanecarbox-amide] | 51.6 nM | 1050 nM

— US9656990B2, “Cathepsin cysteine protease inhibitors” (Merck Sharp & Dohme Corp., priority 2014, dated 2017)
